Experimental data reported in US20130165472A1, “HETEROARYLS AND USES THEREOF” (MILLENNIUM PHARMACEUTICALS, INC., priority 2011, published 2013).

Target: T1, VPS34 (Homo sapiens, UniProt Q8NEB9)
T1 construct: GST (N); host or cells: SF9 insect cells (baculovirus)
Assay: Human VPS34 enzyme assay (Adapta TR-FRET)
Assay type: biochemical
Conditions: for VPS34 Percent Inhibition: at a 1.11 μM concentration
Description: VPS34 (accession number GB:BC033004) was cloned into pDEST20-Thombin as N-terminal GST tagged fusion proteins using the Gateway system (Invitrogen, catalog#11804-013). The sequences were verified before recombinant protein expression using the Baculovirus Expression System with Gateway® Technology.
For expression VPS34 was infected at 1MOI in SF9 cells and harvested 72 hours post infection.
For purification, VPS34 is purified by Glutathione Sepharose 4 Fast Flow (GE Healthcare #17-5132-03) followed by HiTrap Q (GE Healthcare #17-1153-01).
Human VPS34 Enzyme Assay Method
100 mL compounds in DMSO are added to wells of a 384 well microtitre plate (Greiner 780076). At room temperature: 5 ul VPS34 reaction buffer (Invitrogen Assay Buffer Q (diluted 1 in 5 with nanopure water) plus 2 mM DTT and 2 mM MnCl2) containing ATP (20 uM, Promega) and 200 uM PI-PS substrate (Invitrogen PV5122) is added followed immediately by 5 ul VPS34 reaction buffer (as above) containing VPS34 (5 nM, Millennium Protein Sciences Group) and the mixture is incubated with shaking at room temperature for 1 hour. Then 5 ul VPS34 stop-detect mix (as per Invitrogen Adapta Assay kit (PV5009) instructions (contains kinase quench buffer, TR-FRET buffer, Adapta Eu anti-ADP antibody and Alexa Fluor 647 ADP tracer)) is added to quench the reaction. The plates are then incubated for 30 minutes at room temperature with shaking and then read on a BMG PheraStar Plus reader.
For the assay methods described above, test compound percent inhibition, at various concentrations, is calculated relative to control (DMSO and EDTA) treated samples. Compound concentration versus percent inhibition curves are fitted to generate IC50 values. One skilled in the art will appreciate that the values generated either as percentage inhibition at a single concentration or IC50 values are subject to experimental variation.
3) VPS34 is assayed using Adapta™ Universal Kinase Assay Kit (Invitrogen).

T1 sequence (Q8NEB9 whole entry): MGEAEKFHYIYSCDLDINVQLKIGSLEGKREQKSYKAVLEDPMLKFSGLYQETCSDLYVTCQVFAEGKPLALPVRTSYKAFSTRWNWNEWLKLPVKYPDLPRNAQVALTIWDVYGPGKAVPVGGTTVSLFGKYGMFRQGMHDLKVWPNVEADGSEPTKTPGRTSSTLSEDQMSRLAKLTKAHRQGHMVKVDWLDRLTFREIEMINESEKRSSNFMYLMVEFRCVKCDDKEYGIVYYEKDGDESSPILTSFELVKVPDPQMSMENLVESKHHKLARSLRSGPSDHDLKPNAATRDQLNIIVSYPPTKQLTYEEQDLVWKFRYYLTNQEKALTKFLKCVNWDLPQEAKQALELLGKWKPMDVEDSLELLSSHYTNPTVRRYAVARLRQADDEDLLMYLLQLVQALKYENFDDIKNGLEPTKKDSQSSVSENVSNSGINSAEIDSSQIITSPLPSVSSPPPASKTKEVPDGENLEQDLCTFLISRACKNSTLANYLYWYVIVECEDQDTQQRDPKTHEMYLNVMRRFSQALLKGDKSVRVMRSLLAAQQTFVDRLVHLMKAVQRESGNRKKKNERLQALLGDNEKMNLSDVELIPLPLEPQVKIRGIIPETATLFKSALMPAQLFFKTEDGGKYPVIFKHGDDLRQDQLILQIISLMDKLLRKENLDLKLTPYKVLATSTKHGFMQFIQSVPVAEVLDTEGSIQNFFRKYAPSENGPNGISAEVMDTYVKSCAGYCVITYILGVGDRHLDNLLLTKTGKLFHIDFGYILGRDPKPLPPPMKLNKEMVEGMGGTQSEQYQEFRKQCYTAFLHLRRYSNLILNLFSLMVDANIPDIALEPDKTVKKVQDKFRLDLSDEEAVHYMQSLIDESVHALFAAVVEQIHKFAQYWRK

IC50 [nM]	VPS34 Percent Inhibition	SMILES
1000 to 3000	35	CC(=O)Nc1cc(-c2cn(-c3ccc(Cl)cc3Cl)c(-c3ccn[nH]3)n2)c(C)cn1 [Compound I-16, N-{4-[1-(2,4-dichlorophenyl)-2-(1H-pyrazol-5-yl)-1H-imidazol-4-yl]-5-methylpyridin-2-yl}acetamide]
1000 to 3000	28	CC(=O)Nc1cc(-c2nc(-c3ccc(Cl)cc3Cl)c(C(N)=O)[nH]2)ccn1 [Compound I-19, 2-(2-acetamidopyridin-4-yl)-4-(2,4-dichlorophenyl)-1H-imidazole-5-carboxamide]

The remaining lines, values behind:

SMILES	IC50 [nM]	VPS34 Percent Inhibition
CC(=O)Nc1cc(-c2cn(-c3ccc(Cl)cc3Cl)c(-c3ccn[nH]3)n2)ccn1 [Compound I-10, N-{4-[1-(2,4-dichlorophenyl)-2-(1H-pyrazol-5-yl)-1H-imidazol-4-yl]pyridin-2-yl}acetamide]	1000 to 3000	27
CC(=O)Nc1cc2c(ccn3c(C(N)=O)c(-c4ccc(Cl)cc4Cl)nc23)cn1 [Compound I-24, 9-acetamido-2-(2,4-dichlorophenyl)imidazo[2,1-a][2,6]naphthyridine-3-carboxamide]	< 300	>99
CC(=O)Nc1cc(-c2cn(-c3ccccn3)c(-c3ccccc3Cl)n2)ccn1 [Compound I-105, N-{4-[2-(2-chlorophenyl)-1-(pyridin-2-yl)-1H-imidazol-4-yl]pyridin-2-yl}acetamide]	300 to 1000	55
